Starred links: 1 amine or outer side, 2 acyl side, 3 side chain; linkers in the order of their positions; H or OH if unused. Non-standard residues stand in square brackets, D forms with d. Residues, ends and D or L forms follow the SMILES beside them. *: point of attachment. Dolaproine = CO[C@@H]([C@@H]1CCCN1)[C@@H](C)C(=O)O; Hexanoyl(6-maleimido) = O=C1C=CC(=O)N1CCCCCC(=O)*; Dil = CC[C@H](C)[C@H](NC)[C@@H](CC(=O)O)OC; PABC = O=C(OCc1ccc(N[*:1])cc1)[*:2]; X1 = C[C@@H](N*)[C@@H](O)c1ccccc1; Cit = NC(=O)NCCC[C@H](N)C(=O)O; NMeV = CN[C@H](C(=O)O)C(C)C
System: HCT116
Assay: ADC in vitro cell killing assay (CCK-8)
Type: cell-based, human
Conditions: HCT116, 72 h
Method: HCT116 (Cat: CBP60028, Cobioer Biosciences Co., Ltd.) in the logarithmic growth phase was trypsinized, plated in a 96-well plate at 3000 cells/well in 100 µL, and the plate was incubated in a 37°C, 5% CO2 incubator for 24 h. ADC was subjected to a 5-fold serial dilution with cell culture medium (Ham's F-12K, 10% FBS, AusGenex, Cat:FBS500-S) starting from 30000nM, yielding 10 concentration gradients. 10 µL of the diluted sample was added to the cell plate for mixing well, and the plate was incubated in a 37°C, 5% CO2 incubator for 72 h. 10 µL of Cell Counting Kit-8 (CellorLab, CX001) was added to the plate, and the plate was incubated in a 37 °C, 5% CO2 constant temperature incubator for 3 h. The absorbance value at 450 nm was measured with a microplate reader. Data was analyzed with Graphpad, with the in vitro killing activity of TEM8 antibody-drug conjugate shown in Table 5 and the IC50 curve shown in FIG. 4. Table 5: In vitro killing activity of TEM8 antibody-drug conjugate or linker + payload or payload

Row | SMILES | IC50 [µM]
1 | CC[C@H](C)[C@@H]([C@@H](CC(=O)N1CCC[C@H]1[C@H](OC)[C@@H](C)C(=O)N[C@H](C)[C@@H](O)c1ccccc1)OC)N(C)C(=O)[C@@H](NC(=O)[C@@H](NC)C(C)C)C(C)C [MMAE] (H-[NMeV]V[Dil][Dolaproine]-X1) | 0.0148
2 | CC[C@H](C)[C@@H]([C@@H](CC(=O)N1CCC[C@H]1[C@H](OC)[C@@H](C)C(=O)N[C@H](C)[C@@H](O)c1ccccc1)OC)N(C)C(=O)[C@@H](NC(=O)[C@H](C(C)C)N(C)C(=O)OCc1ccc(NC(=O)[C@H](CCCNC(N)=O)NC(=O)[C@@H](NC(=O)CCCCCN2C(=O)C=CC2=O)C(C)C)cc1)C(C)C [VcMMAE] ({Hexanoyl(6-maleimido)}-V[Cit][PABC][NMeV]V[Dil][Dolaproine]-X1) | 1.28
